Source: patent publication US8263610B2, “Substituted imidazolyl-5,6-dihydrobenzo[N]isoquinoline compounds” (ArQule, Inc., priority 2008, dated 2012)
Structures can show the parent of a compound that is named as a salt.

Row | melting point [°C] | SMILES
1 | 159 to 161 | CC(C)(C)OC(=O)N1CCN(C(C(=O)N2CCc3c(cnc4[nH]nc(Br)c34)C2)c2ccccc2)CC1 (stereo not shown) [Example 91, tert-butyl 4-(2-(1-bromo-8,9-dihydro-3H-pyrazolo[3,4-c][2,7]naphthyridin-7(6H)-yl)-2-oxo-1-phenylethyl)piperazine-1-carboxylate]
2 | 148 to 151 | COc1ccc(-c2ccccc2)cc1NC(=O)N1CCc2c(cnc3[nH]ncc23)C1 [Example 409, N-(4-methoxybiphenyl-3-yl)-8,9-dihydro-3H-pyrazolo[3,4-c][2,7]naphthyridine-7(6H)-carboxamide]
3 | 237 to 240 | O=C(O)C(c1ccccc1)N1CCc2c(cnc3[nH]ncc23)C1 (stereo not shown) [Example 433, 2-(8,9-dihydro-3H-pyrazolo[3,4-c][2,7]naphthyridin-7(6H)-yl)-2-phenylacetic acid]
4 | > 215 | O=C(Nc1cccc(C(=O)N2CCC(n3c(=O)[nH]c4ccccc43)CC2)c1)N1CCc2c(cnc3[nH]ncc23)C1 [Example 94, N-(3-(4-(2-oxo-2,3-dihydro-1H-benzo[d]imidazol-1-yl)piperidine-1-carbonyl)phenyl)-8,9-dihydro-3H-pyrazolo[3,4-c][2,7]naphthyridine-7(6H)-carboxamide]
5 | 290 to 296 | O=c1ccc2c([nH]1)CCc1cnc3[nH]ncc3c1-2 [Example 15, 6,7-dihydro-3H-pyrazolo[4,3-a][3,7]phenanthrolin-9(8H)-one]
6 | 198 to 200 | O=C(c1ccccc1)N1CCc2c(cnc3[nH]ncc23)C1 [Example 427, (8,9-dihydro-3H-pyrazolo[3,4-c][2,7]naphthyridin-7(6H)-yl)(phenyl)methanone]
7 | > 65 | CC(C)(C)OC(=O)N1CCc2c(cnc3[nH]nc(Br)c23)C1 [Example 77, tert-butyl 1-bromo-8,9-dihydro-3H-pyrazolo[3,4-c][2,7]naphthyridine-7(6H)-carboxylate]
8 | > 225 | Clc1ccccc1C1Cc2cnc3[nH]nc(-c4cnn(C5CCNCC5)c4)c3c2-c2ccccc21 (stereo not shown) (as salt: TFA) [Example 19, 7-(2-chlorophenyl)-1-(1-piperidin-4-yl-1H-pyrazol-4-yl)-6,7-dihydro-3H-benzo[f]pyrazolo[3,4-c]isoquinoline]
9 | 85 to 89 | COc1cccc2c1CCc1cnc3[nH]ncc3c1-2 [Example 8, 8-methoxy-6,7-dihydro-3H-benzo[f]pyrazolo[3,4-c]isoquinoline]
10 | 136 to 138 | COc1ccc(Cn2ncc3c4c(cnc32)CN(S(=O)(=O)c2ccccc2)CC4)cc1 [Compound 6, 3-(4-methoxybenzyl)-7-(phenylsulfonyl)-6,7,8,9-tetrahydro-3H-pyrazolo[3,4-c][2,7]naphthyridine]
11 | > 152 | Cc1nc(-c2cccc(NC(=O)N3CCc4c(cnc5[nH]nc(Br)c45)C3)c2)no1 [Example 404, 1-bromo-N-[3-(5-methyl-1,2,4-oxadiazol-3-yl)phenyl]-3,6,8,9-tetrahydro-7H-pyrazolo[3,4-c][2,7]naphthyridine-7-carboxamide]
12 | > 136 | COc1ccc(Cn2ncc3c4c(cnc32)CN(C(=O)Nc2cccc(C(=O)O)c2)CC4)cc1 [Example 153, 3-(3-(4-methoxybenzyl)-6,7,8,9-tetrahydro-3H-pyrazolo[3,4-c][2,7]naphthyridine-7-carboxamido)benzoic acid]
13 | 88 to 91 | Clc1ccccc1C1Cc2cnc3[nH]ncc3c2-c2ccccc21 (stereo not shown) [Example 5, 7-(2-dichlorophenyl)-6,7-dihydro-3H-benzo[f]pyrazolo[3,4-c]isoquinoline]
14 | 300 to 302 | O=C(c1ccccc1)c1c[nH]c2ncnc(N3CCc4c(cnc5[nH]nc(Br)c45)C3)c12 [Example 436]
15 | > 115 | O=C(C(NCCO)c1ccccc1)N1CCc2c(cnc3[nH]nc(Br)c23)C1.O=C(O)C(F)(F)F (stereo not shown)
16 | 143 to 145 | c1ccc(C2Cc3cnc4[nH]ncc4c3-c3ccccc32)cc1 (stereo not shown) [Example 2, 7-phenyl-6,7-dihydro-3H-benzo[f]pyrazolo[3,4-c]isoquinoline]
17 | > 150 | O=C(c1ccccc1)N1CCc2cnc3[nH]ncc3c2-c2ccccc21 [Example 431, 8-(phenylcarbonyl)-3,6,7,8-tetrahydropyrazolo[4′,3′:5,6]pyrido[3,4-d][1]benzazepine]
18 | 230 to 231 | O=C(Nc1ccccc1)N1CCc2c(cnc3[nH]nc(C4=CCNCC4)c23)C1 (as salt: chloride)
19 | > 65 | COc1ccc(Cn2ncc3c4c(cnc32)CC(NC(=O)c2ccccc2)CC4)cc1 (stereo not shown) [Compound 5, N-[3-(4-methoxybenzyl)-6,7,8,9-tetrahydro-3H-pyrazolo[3,4-c]isoquinolin-7-yl]benzamide]
20 | 215 to 217 | c1ccc2c(c1)NCCc1cnc3[nH]ncc3c1-2 [Example 29, 3,6,7,8-tetrahydropyrazolo[4′,3′:5,6]pyrido[3,4-d][1]benzazepine]
21 | 95 to 97 | COc1ccc2c(c1)-c1c(cnc3[nH]ncc13)CC2 [Example 9, 10-methoxy-6,7-dihydro-3H-benzo[f]pyrazolo[3,4-c]isoquinoline]

Row | melting point [°C] | SMILES
22 | > 140 | O=C(Nc1ccccc1)N1CCc2cnc3[nH]ncc3c2-c2ccccc21 [Example 319, N-phenyl-6,7-dihydropyrazolo[4′,3′:5,6]pyrido[3,4-d][1]benzazepine-8(3H)-carboxamide]
23 | 184 to 186 | O=C(Nc1ccccc1)N1CCc2c(cnc3[nH]ncc23)C1 [Example 318, N-phenyl-8,9-dihydro-3H-pyrazolo[3,4-c][2,7]naphthyridine-7(6H)-carboxamide]
24 | 167 to 169 | Fc1ccc(C2Cc3cnc4[nH]ncc4c3-c3ccccc32)cc1 (stereo not shown) [Example 6, 7-(4-fluorophenyl)-6,7-dihydro-3H-benzo[f]pyrazolo[3,4-c]isoquinoline]
25 | > 232 | c1ccc(CNC2CCc3c(cnc4[nH]ncc34)C2)cc1 (stereo not shown) (as salt: TFA)
26 | > 300 | O=C(NC1CCc2c(cnc3[nH]ncc23)C1)c1ccccc1 (stereo not shown) [Example 430, N-(6,7,8,9-tetrahydro-3H-pyrazolo[3,4-c]isoquinolin-7-yl)benzamide]
27 | 150 to 170 | O=C(Nc1ccccc1)N1CCc2c(cnc3[nH]nc(-c4ccccc4)c23)C1 [Example 407, N,1-diphenyl-8,9-dihydro-3H-pyrazolo[3,4-c][2,7]naphthyridine-7(6H)-carboxamide]
28 | 228 to 229 | O=S(=O)(NC1CCc2c(cnc3[nH]ncc23)C1)c1ccccc1 (stereo not shown) [Example 158, N-(6,7,8,9-tetrahydro-3H-pyrazolo[3,4-c]isoquinolin-7-yl)benzenesulfonamide]
29 | > 140 | Cc1nc(-c2cccc(NC(=O)N3CCc4c(cnc5[nH]ncc45)C3)c2)no1 [Example 406, N-(3-(5-methyl-1,2,4-oxadiazol-3-yl)phenyl)-8,9-dihydro-3H-pyrazolo[3,4-c][2,7]naphthyridine-7(6H)-carboxamide]
30 | 221 to 223 | Cc1cncc(Oc2cccc(NC(=O)N3CCc4c(cnc5[nH]nc(Br)c45)C3)c2)n1 [Example 403, 1-bromo-N-{3-[(6-methylpyrazin-2-yl)oxy]phenyl}-3,6,8,9-tetrahydro-7H-pyrazolo[3,4-c][2,7]naphthyridine-7-carboxamide]
31 | > 155 | Cc1nc(-c2cccc(NC(=O)N3CCc4c(cnc5[nH]ncc45)C3)c2)cs1 [Example 401, N-(3-(2-methylthiazol-4-yl)phenyl)-8,9-dihydro-3H-pyrazolo[3,4-c][2,7]naphthyridine-7(6H)-carboxamide]
32 | 96 to 102 | COc1ccc(Cn2ncc3c4c(cnc32)CNCC4)cc1
33 | 168 to 170 | Clc1ccc(C2Cc3cnc4[nH]ncc4c3-c3ccccc32)cc1Cl (stereo not shown) [Example 1, 7-(3,4-dichlorophenyl)-6,7-dihydro-3H-benzo[f]pyrazolo[3,4-c]isoquinoline]
34 | 258 to 261 | Cc1nc(-c2cccc(NC(=O)N3CCc4c(cnc5[nH]nc(Br)c45)C3)c2)cs1 [Example 402, 1-bromo-N-(3-(2-methylthiazol-4-yl)phenyl)-8,9-dihydro-3H-pyrazolo[3,4-c][2,7]naphthyridine-7(6H)-carboxamide]
35 | 176 to 178 | Brc1n[nH]c2ncc3c(c12)-c1ccccc1C(c1ccccc1)C3 (stereo not shown) [Example 16, 1-bromo-7-phenyl-6,7-dihydro-3H-benzo[f]pyrazolo[3,4-c]isoquinoline]
36 | 263 to 265 | c1cnc2c(c1)CCc1cnc3[nH]ncc3c1-2 [Example 10, 6,9-dihydro-5H-pyrazolo[3,4-k][1,8]phenanthroline]
37 | > 300 | O=C(Nc1ccccc1)C1CCc2c(cnc3[nH]ncc23)C1 (stereo not shown)
38 | > 135 | O=C(NCc1ccccc1)c1cccc(NC(=O)N2CCc3c(cnc4[nH]ncc34)C2)c1 (as salt: TFA) [Example 96, N-[3-(benzylcarbamoyl)phenyl]-3,6,8,9-tetrahydro-7H-pyrazolo[3,4-c][2,7]naphthyridine-7-carboxamide]
39 | > 245 | Cl.O=C(C(c1ccccc1)N1CCNCC1)N1CCc2c(cnc3[nH]nc(Br)c23)C1 (stereo not shown)
40 | 175 to 178 | O=C(Nc1cccc(Cc2ccccc2)c1)N1CCc2c(cnc3[nH]ncc23)C1 [Example 408, N-(3-benzylphenyl)-8,9-dihydro-3H-pyrazolo[3,4-c][2,7]naphthyridine-7(6H)-carboxamide]
41 | > 70 | CC(C)(C)OC(=O)N1CCc2c(cnc3[nH]ncc23)C1 [Example 76, tert-butyl 8,9-dihydro-3H-pyrazolo[3,4-c][2,7]naphthyridine-7(6H)-carboxylate]
42 | 139 to 141 | CC(C)(C)OC(=O)N1CCC(n2cc(-c3n[nH]c4ncc5c(c34)-c3ccccc3C(c3ccccc3Cl)C5)cn2)CC1 (stereo not shown) [Example 18, tert-butyl 4-(4-(7-(2-chlorophenyl)-6,7-dihydro-3H-benzo[f]pyrazolo[3,4-c]isoquinolin-1-yl)-1H-pyrazol-1-yl)piperidine-1-carboxylate]

Row | SMILES | melting point [°C]
43 | O=C(O)C(F)(F)F.c1nc2[nH]ncc2c2c1CNCC2 | 224 to 227
